Measured values taken from ChEMBL document CHEMBL1201862, “PubChem BioAssay data set” (2004).
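Following 48 hours of exposure in 96-well plates, responses at five concentrations were used to interpolate endpoints linearly. GI50 is the concentration that inhibits growth by half.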 Active and inactive are the calls of the source. Rule as the data show it: active = GI50 up to about 1.1 µM and inactive = higher.

Columns and labels:
Test in all cases: DTP human tumour cell line panel, 48 h
NCI-H23 = tested on: NCI-H23
MCF7 = tested on: MCF7
SF-295 = tested on: SF-295
MDA-MB-435 = tested on: MDA-MB-435
OVCAR-5 = tested on: OVCAR-5
HOP-92 = tested on: HOP-92
OVCAR-8 = tested on: OVCAR-8
SF-539 = tested on: SF-539
SK-MEL-2 = tested on: SK-MEL-2
HOP-62 = tested on: HOP-62
UACC-62 = tested on: UACC-62
KM12 = tested on: KM12
HL-60 = tested on: HL-60
MOLT-4 = tested on: MOLT-4
U-251 = tested on: U-251
PC-3 = tested on: PC-3
OVCAR-3 = tested on: OVCAR-3
LOX IMVI = tested on: LOX IMVI
RPMI-8226 = tested on: RPMI-8226
UACC-257 = tested on: UACC-257

Compound	GI50 (NCI-H23)	GI50 (MCF7)	GI50 (SF-295)	GI50 (MDA-MB-435)	GI50 (OVCAR-5)	GI50 (HOP-92)	GI50 (OVCAR-8)	GI50 (SF-539)	GI50 (SK-MEL-2)	GI50 (HOP-62)	GI50 (UACC-62)	GI50 (KM12)	GI50 (HL-60)	GI50 (MOLT-4)	GI50 (U-251)	GI50 (PC-3)	GI50 (OVCAR-3)	GI50 (LOX IMVI)	GI50 (RPMI-8226)	GI50 (UACC-257)
CC(=O)N1OC(C)CC1Nc1ccc(Br)cc1 (stereo not given)	> 100 µM (inactive)	21.5 µM (inactive)	> 100 µM (inactive)	0.577 µM (active)	96.2 µM (inactive)	> 100 µM (inactive)	> 100 µM (inactive)	5.77 µM (inactive)	2.62 µM (inactive)	0.366 µM (active)	88.3 µM (inactive)	1.44 µM (inactive)	1.95 µM (inactive)	0.971 µM (active)	1.99 µM (inactive)	1.04 µM (active)	82.4 µM (inactive)	–	–	–
CC(C(=O)COCc1ccccc1)P1(=O)OC(C)(C)CN1C(C)(C)C (stereo not given)	> 100 µM (inactive)	> 100 µM (inactive)	> 100 µM (inactive)	> 100 µM (inactive)	49.4 µM (inactive)	> 100 µM (inactive)	> 100 µM (inactive)	> 100 µM (inactive)	–	> 100 µM (inactive)	> 100 µM (inactive)	> 100 µM (inactive)	> 100 µM (inactive)	> 100 µM (inactive)	–	–	> 100 µM (inactive)	> 100 µM (inactive)	> 100 µM (inactive)	> 100 µM (inactive)
O=C(Cc1ccccc1)NN1C(=O)/C(=C\c2ccc(O)cc2)S/C1=N\c1ccccc1	> 100 µM (inactive)	84.1 µM (inactive)	> 100 µM (inactive)	> 100 µM (inactive)	> 100 µM (inactive)	21.6 µM (inactive)	> 100 µM (inactive)	> 100 µM (inactive)	> 100 µM (inactive)	> 100 µM (inactive)	> 100 µM (inactive)	> 100 µM (inactive)	> 100 µM (inactive)	95.5 µM (inactive)	> 100 µM (inactive)	–	> 100 µM (inactive)	–	> 100 µM (inactive)	> 100 µM (inactive)
CCCCOC(=O)NC(Nc1ccc(S(N)(=O)=O)cc1)(C(F)(F)F)C(F)(F)F	> 100 µM (inactive)	> 100 µM (inactive)	–	> 100 µM (inactive)	> 100 µM (inactive)	–	–	> 100 µM (inactive)	> 100 µM (inactive)	> 100 µM (inactive)	> 100 µM (inactive)	> 100 µM (inactive)	> 100 µM (inactive)	> 100 µM (inactive)	> 100 µM (inactive)	–	> 100 µM (inactive)	> 100 µM (inactive)	> 100 µM (inactive)	> 100 µM (inactive)
COc1ccc(N2C(=O)c3c4c(c5c([nH]c6ncccc65)c3C2=O)CCC(C(C)(C)C)C4)cc1 (stereo not given)	67 µM (inactive)	> 100 µM (inactive)	45.6 µM (inactive)	> 100 µM (inactive)	–	–	> 100 µM (inactive)	41.9 µM (inactive)	–	38.6 µM (inactive)	30.3 µM (inactive)	> 100 µM (inactive)	> 100 µM (inactive)	> 10 µM (inactive)	31 µM (inactive)	> 100 µM (inactive)	> 100 µM (inactive)	–	> 100 µM (inactive)	> 100 µM (inactive)
CCOC(=O)/C(=N/Nc1ccccc1)N1C(=S)N(C)N=C(C)C=C1S	33.9 µM (inactive)	> 100 µM (inactive)	28.4 µM (inactive)	> 100 µM (inactive)	> 100 µM (inactive)	47.8 µM (inactive)	> 100 µM (inactive)	> 100 µM (inactive)	> 100 µM (inactive)	–	83.4 µM (inactive)	> 100 µM (inactive)	> 100 µM (inactive)	> 100 µM (inactive)	20 µM (inactive)	–	> 100 µM (inactive)	–	> 100 µM (inactive)	> 100 µM (inactive)
CC(C)CCNC(=O)c1ccc(CNC(=O)/C=C/c2ccc(OCc3ccccc3)cc2)cc1	> 100 µM (inactive)	> 100 µM (inactive)	> 100 µM (inactive)	> 100 µM (inactive)	> 100 µM (inactive)	> 100 µM (inactive)	> 100 µM (inactive)	–	> 100 µM (inactive)	> 100 µM (inactive)	> 100 µM (inactive)	> 100 µM (inactive)	–	> 100 µM (inactive)	> 100 µM (inactive)	> 100 µM (inactive)	> 100 µM (inactive)	> 100 µM (inactive)	> 100 µM (inactive)	> 100 µM (inactive)
COc1cc(C2c3cc(OC)c(OC)c(O)c3C(=O)C3CCC(=O)N32)cc(OC)c1OC (stereo not given)	–	> 100 µM (inactive)	> 100 µM (inactive)	16.2 µM (inactive)	> 100 µM (inactive)	35.3 µM (inactive)	25 µM (inactive)	> 100 µM (inactive)	> 100 µM (inactive)	> 100 µM (inactive)	64 µM (inactive)	48.2 µM (inactive)	26.4 µM (inactive)	25.6 µM (inactive)	86.7 µM (inactive)	> 100 µM (inactive)	34.1 µM (inactive)	40.8 µM (inactive)	28.8 µM (inactive)	> 100 µM (inactive)
CCCCN(CC)c1nc(C)nc2c1c(C)c(C)n2-c1c(C)cc(C)cc1C [ANTALARMIN]	14.5 µM (inactive)	–	14.3 µM (inactive)	17.1 µM (inactive)	15.3 µM (inactive)	9.35 µM (inactive)	14.2 µM (inactive)	2.69 µM (inactive)	12.9 µM (inactive)	17.2 µM (inactive)	–	17.6 µM (inactive)	4.1 µM (inactive)	10.9 µM (inactive)	11.7 µM (inactive)	13.5 µM (inactive)	13.3 µM (inactive)	15.6 µM (inactive)	7.87 µM (inactive)	13.3 µM (inactive)
Cc1ccc(S(=O)(=O)NCCSCCNS(=O)(=O)c2ccc(C)cc2)cc1	> 100 µM (inactive)	> 100 µM (inactive)	> 100 µM (inactive)	> 100 µM (inactive)	–	> 100 µM (inactive)	> 100 µM (inactive)	–	–	–	–	> 100 µM (inactive)	–	> 100 µM (inactive)	> 100 µM (inactive)	> 100 µM (inactive)	> 100 µM (inactive)	> 100 µM (inactive)	–	> 100 µM (inactive)
Cc1[nH]nc(-c2ccon2)c1N=O	19.3 µM (inactive)	22.9 µM (inactive)	18.7 µM (inactive)	20.5 µM (inactive)	19.3 µM (inactive)	14.2 µM (inactive)	17 µM (inactive)	17.9 µM (inactive)	34.3 µM (inactive)	21 µM (inactive)	17.9 µM (inactive)	21 µM (inactive)	12.1 µM (inactive)	2 µM (inactive)	17.9 µM (inactive)	25.3 µM (inactive)	18.4 µM (inactive)	–	3.78 µM (inactive)	17.4 µM (inactive)
Cn1c(=O)c2c(nc(Cc3ccccc3)n2CC(=O)O)n(C)c1=O	> 100 µM (inactive)	–	> 100 µM (inactive)	> 100 µM (inactive)	> 100 µM (inactive)	> 100 µM (inactive)	> 100 µM (inactive)	–	> 100 µM (inactive)	> 100 µM (inactive)	> 100 µM (inactive)	> 100 µM (inactive)	–	> 100 µM (inactive)	> 100 µM (inactive)	> 100 µM (inactive)	> 100 µM (inactive)	> 100 µM (inactive)	–	> 100 µM (inactive)
COc1ccc2cc(/C=N\NC(=O)Nc3cccc4ccccc34)ccc2c1	24.3 µM (inactive)	20.3 µM (inactive)	–	50.6 µM (inactive)	69.5 µM (inactive)	–	24 µM (inactive)	30.5 µM (inactive)	25.7 µM (inactive)	15.3 µM (inactive)	–	67 µM (inactive)	> 10 µM (inactive)	34.1 µM (inactive)	16.4 µM (inactive)	33.7 µM (inactive)	–	33.9 µM (inactive)	–	32.4 µM (inactive)
COc1cccc(Nc2nc(-c3cccs3)nc3ccc(Br)cc23)c1	46 µM (inactive)	12.7 µM (inactive)	36.6 µM (inactive)	76 µM (inactive)	95.3 µM (inactive)	31.4 µM (inactive)	39.2 µM (inactive)	94.2 µM (inactive)	> 100 µM (inactive)	20 µM (inactive)	66.2 µM (inactive)	74 µM (inactive)	> 100 µM (inactive)	–	35.5 µM (inactive)	27.4 µM (inactive)	36.6 µM (inactive)	> 100 µM (inactive)	1.67 µM (inactive)	> 100 µM (inactive)
CC(C)OP(=O)(OC(C)C)c1ccc2c(c1)OCCOCCOCCOCCO2	> 100 µM (inactive)	> 100 µM (inactive)	> 100 µM (inactive)	> 100 µM (inactive)	–	–	> 100 µM (inactive)	> 100 µM (inactive)	–	> 100 µM (inactive)	> 100 µM (inactive)	> 100 µM (inactive)	> 100 µM (inactive)	> 100 µM (inactive)	–	> 100 µM (inactive)	–	95.7 µM (inactive)	> 100 µM (inactive)	> 100 µM (inactive)
Cc1ccc(-c2c(C#N)c(N)nc3c2CCS(=O)(=O)c2ccccc2-3)cc1	> 100 µM (inactive)	–	–	> 100 µM (inactive)	–	34.1 µM (inactive)	41 µM (inactive)	–	49.1 µM (inactive)	–	57.3 µM (inactive)	> 100 µM (inactive)	–	–	68.2 µM (inactive)	78.9 µM (inactive)	–	> 100 µM (inactive)	> 100 µM (inactive)	65 µM (inactive)
